Data from patent publication US20240002379A1, “ASYMMETRIC CONJUGATE COMPOUNDS” (Pheon Therapeutics Ltd., priority 2016, published 2024).

What was measured:
SW48 cell line (gastric) = assay: MTT cytotoxicity assay, SW48; format: cell-based; details: Homo sapiens, SW48; MTT assay, 72 hour incubation; read-out: Cytotoxicity SW48 (72 hrs)
Outline: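 Cells seeded at 1800/well in RPMI1640 + 10% FBS, adhered overnight, then exposed to compound 72 h at 37° C. Survival by MTT (500 μg/ml, 4 h), formazan in DMSO read at 540 nm, blank-corrected versus untreated wells; IC50 read from concentration–survival plot.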

TyrT DNA fragment = assay: DNA cleavage assay, TyrT fragment; format: biochemical
Method: The ability of 13 and of a series of compounds to cleave double-stranded DNA was investigated using a modification of the previously established DNA footprinting assay (34). Following an overnight incubation of the ligand-DNA complexes, the mixture was mixed with strand separation buffer containing 10 mM EDTA, 10 mM NaOH, 0.1% bromophenol blue, 80% formamide and incubated at 100° C. for 3 min. The mixture was then immediately cooled on ice and run on an 8% denaturing gel. […] Using the GA marker, these additional bands were identified as cleavage products produced by 13 at certain A sites of the DNA fragment.
The preparation of the TyrT DNA fragment (FIG. 8) and HexARev DNA fragment (FIG. 15) have been previously described (34). Briefly, the sequence which had been cloned into the BamHI site of pUC18 was obtained by cutting with HindIII and EcoRI. Radiolabelled DNA fragments were prepared by filling in the 3′-end of the HindIII site with [α-^32P]dATP using Klenow DNA polymerase (exo-).
The radiolabelled DNA fragment was separated from the remainder of the plasmid DNA on a 6% non-denaturing polyacrylamide gel. The gel (20 cm long, 0.3 mm thick) was run at 400 V in 1×TBE running buffer for about 1-2 h, until the bromophenol blue had run most of the way down the gel. […]

Compound: COc1cc2c(cc1OCCCC(=O)N1C[C@@H](CCl)c3c1cc(O)c1ccccc31)N=C[C@@H]1CCCCN1C2=O [Compound 13, (S)-3-(4-((S)-1-(Chloromethyl)-5-hydroxy-1,2-dihydro-3H-benzo[e]indol-3-yl)-4-oxobutoxy)-2-methoxy-7,8,9,10-tetrahydrobenzo[e]-pyrido[1,2-a][1,4]diazepin-12(6aH)-one]
- IC50 (SW48 cell line (gastric)): 0.28 nM
- number of preferred sites observed in the TyrT DNA fragment (TyrT DNA fragment; cleavage at A sites): three
- cleavage of TyrT DNA fragment (TyrT DNA fragment; overnight incubation, 100° C. for 3 min, 8% denaturing gel (FIG. 11)): distinct cleavage patterns
